Laboratory results from PMC6814738, “Bacterial MgrB peptide activates chemoreceptor Fpr3 in mouse accessory olfactory system and drives avoidance behaviour” (Nature Communications, 2019).
“Also recorded” adds a separate entry of the source. Peptide text beside a SMILES is read from it. * marks the point of attachment. For = O=C*

Assays:
Fpr3-expressing VSNs [1] = assay: Egr1 induction in Fpr3-positive VSNs after oronasal peptide application, RNAscope (Fig. 7c, e); assay type: in vivo, mouse; details: 100 µM, male B6 mice
Experimental: (§1) For each mouse, serial coronal VNO cryosections (12 µm) were collected as two alternate sets, each representing every second section of the whole VNO. One set was subjected to RNAscope in situ hybridisation using the RNAscope Fluorescent Multiplex Detection Kit (ACD Bio-Techne) and specific probes for Fpr3 and LacZ according to the manufacturer’s protocol. Sections were incubated in 1 x citrate buffer pH 6.0 (DAKO, Germany) for 5 min at 98 °C in a coplin jar, rinsed twice in distilled water, dehydrated in 100% ethanol, and air dried prior to protease III treatment for 30 min at 40 °C. After rinsing in distilled water, sections were simultaneously hybridised with RNA scope target probes generated for mouse Fpr3 and E.coli LacZ (ACD Bio-Techne). The Fpr3 probe was designed as channel 1 probe containing 7 ZZ structures targeting base pairs 456–1143 of NM_008042.2, specific to mouse Fpr3. The LacZ probe, designed as channel 3 probe contains 30 ZZ structures targeting the region 279–1790 bp of KC847299.1 (cat# 313451-C3). […] Following hybridisation (2 h, 40 °C), sections were rinsed twice for 2 min in wash buffer (ACD Bio-Techne), and sequentially treated with amplification solutions at 40 °C (30 min Amp1-FL, 15 min Amp2-FL, 30 min Amp3-FL) and fluorescence reagent (15 min, 40 °C Amp4-altC), with intermitting washing steps at room temperature between reagents. Cell nuclei were stained with DAPI solution (ACD Bio-Techne) for 1 min, and tissue sections were mounted with DAKO fluorescence medium and stored for 12 h at 4 °C. Fluorescence images of the RNAscope results were acquired from each section using a Zeiss LSM 880 confocal microscope containing a 32-channel GaAsP-PMT and 2-channel PMT QUASAR detector.
We stimulated adult male B6 mice with f-MKKFRW (100 µM) and performed double-labelling RNAscope in situ hybridisation for Fpr3 and the immediate early gene Egr1 on VNO tissue sections. […] VNO tissue was prepared for RNAscope fluorescence in situ hybridisation as described above using Fpr3 and Egr1 probes simultaneously. […]

Fpr3-expressing VSNs [2] = assay: Egr1 induction in Fpr3-positive VSNs after voluntary peptide uptake in freely behaving mice, RNAscope (Fig. 7d, f); assay type: in vivo, mouse; details: male B6 mice
Experimental: as §1, with “°C.” for “°C. After rinsing in distilled water, sections were simultaneously hybridised with RNA scope target probes generated for mouse Fpr3 and E.coli LacZ (ACD Bio-Techne). The Fpr3 probe was designed as channel 1 probe containing 7 ZZ structures targeting base pairs 456–1143 of NM_008042.2, specific to mouse Fpr3. The LacZ probe, designed as channel 3 probe contains 30 ZZ structures targeting the region 279–1790 bp of KC847299.1 (cat# 313451-C3).”, “detector. […]” for “detector.”

mouse Fpr3 = details: cited from earlier work
Experimental: We estimate the fraction of knobs responding to f-MKKFRW as ~0.15%, which is similar to the fraction of cells in the VNE that express Fpr3[30]. Strikingly, the sensitivity and sequence-selectivity profile of these responses was nearly identical to the results that we obtained for heterologously expressed Fpr3. The detection threshold of native VSNs for f-MKKFRW was ≤0.1 µM (Fig. 4f), virtually the same as for Fpr3-expres ... || Given the importance of the olfactory system in a variety of behavioural avoidance and defence mechanisms[14],[62],[63], we reasoned that in vivo detection of MgrB peptide may evoke an avoidance reaction in mice. We devised a behavioural assay[14],[60] in order to determine whether direct nasal contact with MgrB peptide evokes unconditioned, innate avoidance (Fig. 8a and Methods). […] (Fig ... || We used custom-made peptides with a length of 6–21 amino acids to screen for agonists. Sequences of fMet peptides were designed according to motifs present at the N-termini of 15,125 specific bacterial proteins as annotated in UniProt. Peptides were chemically synthesised, purified, and verified by mass spectroscopy (MALDI-TOF) by commercial suppliers. Purity of all peptides was >95%. Source, sequence and purity of each peptide are listed in Supplementary Data 1. Lyophilised peptides were routinely dissolved in the Ca^2+ imaging assay buffer C1 (130 mM NaCl, 10 mM HEPES, 5 mM KCl, 2 mM CaCl2, ...

CSCC[C@H](NC=O)C(=O)N[C@@H](CCCCN)C(=O)N[C@@H](CCCCN)C(=O)N[C@@H](Cc1ccccc1)C(=O)N[C@@H](CCCNC(=N)N)C(=O)N[C@@H](Cc1c[nH]c2ccccc12)C(=O)O [f-MKKFRW] (For-MKKFRW-OH)
Egr1-positive / Fpr3-positive VSNs (Fpr3-expressing VSNs [1]; oronasal): 145/317 | fraction of Fpr3-positive VSNs co-localised with Egr1 (Fpr3-expressing VSNs [1]; oronasal, mean ± s.d.): 0.46 ± 0.11 | Egr1 induction in Fpr3-positive VSNs (Fpr3-expressing VSNs [1]; oronasal or voluntary uptake, both types of experiments): ~ 50% | fraction of Fpr3-positive VSNs co-localised with Egr1 (Fpr3-expressing VSNs [2]; 100 µM in 50% FEU, mean ± s.d.): 0.46 ± 0.12 | Egr1-positive / Fpr3-positive VSNs (Fpr3-expressing VSNs [2]; 100 µM): 77/160

f-MGFFIS [bacterial signal peptide fragment]
activation of heterologously expressed Fpr3, in words (mouse Fpr3): not Fpr3; also recorded: failed to activate heterologously expressed Fpr3
